Results from paper PMC7395068, “The evolution of strategies to minimise the risk of human drug-induced liver injury (DILI) in drug discovery and development” (Archives of Toxicology, 2020).
Where two headings read alike, the source gives them in different places.

Legend:
hLiMTs [1] = test: Combined HCI (HCS) and cellular ATP 3D assay in hLiMTs; conditions: for hLiMTs <25x Avg Cmax ATP / hLiMTs <100x Avg Cmaxu ATP: ATP endpoint; for hLiMTs <25x Avg Cmax ATP / hLiMTs <25x Avg Cmax HCS / hLiMTs <25x Avg Cmax All: cut-off <25x Avg Cmax; for hLiMTs <100x Avg Cmaxu ATP / hLiMTs <100x Avg Cmaxu HCS / hLiMTs <100x Avg Cmaxu All: cut-off <100x Avg Cmaxu; for hLiMTs <25x Avg Cmax HCS / hLiMTs <100x Avg Cmaxu HCS: HCS endpoints; for hLiMTs <25x Avg Cmax All: all endpoints (ATP and HCS); for hLiMTs Cmax max All / hLiMTs Cmax min All / hLiMTs <10 uM All / hLiMTs <100x Avg Cmaxu All: all endpoints; for hLiMTs Cmax max All: Cmax max used; for hLiMTs Cmax min All: Cmax min used; for hLiMTs <10 uM All: cut-off <10 uM; for AC50 / minimal effective concentration: Homo sapiens
HepaRG spheroids = test: Combined HCI (HCS) and cellular ATP 3D assay in HepaRG spheroids; conditions: for HepaRG <25x Avg Cmax ATP / HepaRG <100x Avg Cmaxu ATP: ATP endpoint; for HepaRG <25x Avg Cmax ATP / HepaRG <25x Avg Cmax HCS / HepaRG <25x Avg Cmax All: cut-off <25x Avg Cmax; for HepaRG <100x Avg Cmaxu ATP / HepaRG <100x Avg Cmaxu HCS / HepaRG <100x Avg Cmaxu All: cut-off <100x Avg Cmaxu; for HepaRG <25x Avg Cmax HCS / HepaRG <100x Avg Cmaxu HCS: HCS endpoints; for HepaRG <25x Avg Cmax All: all endpoints (ATP and HCS); for HepaRG Cmax max All / HepaRG Cmax min All / HepaRG <10 uM All / HepaRG <100x Avg Cmaxu All: all endpoints; for HepaRG Cmax max All: Cmax max used; for HepaRG Cmax min All: Cmax min used; for HepaRG <10 uM All: cut-off <10 uM; for AC50 / minimal effective concentration: Homo sapiens; for HepaRG <25x Avg Cmax ATP / HepaRG <100x Avg Cmaxu ATP / HepaRG <25x Avg Cmax HCS / HepaRG <100x Avg Cmaxu HCS / HepaRG <25x Avg Cmax All / HepaRG Cmax max All / HepaRG Cmax min All / HepaRG <10 uM All / HepaRG <100x Avg Cmaxu All / AC50 / minimal effective concentration: HepaRG; for DILI prediction HepaRG spheroids (HCS-MEC): Microtissue model structural based (HCI), combined HCS and ATP, MEC < 25 × Cmax.tot cut-off
[2] = Plasma free fraction (fu) and unbound Cmax (Cmax,u); assay type: in vitro ADME, human; conditions: unbound plasma Cmax
Experimental: The prediction of DILI severity was evaluated further using the 3D combined HCI assays using plasma-free fraction. The majority of fu values were obtained from literature, when unavailable in-house prediction was utilised. Unbound plasma Cmax concentrations (Cmax,u) were derived by multiplying total plasma Cmax with the corresponding free fraction (fu) for each compound.

[3] = read-out: Human plasma Cmax; total plasma Cmax.tot, median of 9 literature references; cited from earlier work
[4] = system: HepG2 C3A spheroid, BSEP, Glu/Gal in HepG2 cells, bioactivation; conditions: In vitro Assay; ref Williams 2019; cited from earlier work
[5] = system: THLE or HepG2 cells, isolated mitochondria, BSEP; conditions: cited from earlier work
[6] = plasma free fraction; cited from earlier work
[7] = system: isolated mouse liver mitochondria; conditions: In vitro Assay; ref Porceddu 2012; cited from earlier work
HepG2 cells = conditions: cited from earlier work
[8] = system: HepG2 cells, primary human hepatocytes; conditions: In vitro Assay; ref Garside 2014; cited from earlier work
PHH = conditions: cited from earlier work
[9] = system: primary human hepatocytes, NIH3T3 fibroblasts, BSEP, CYP3A4; conditions: cited from earlier work
hLiMTs [10] = conditions: cited from earlier work
[11] = cited from earlier work
[12] = cited from earlier work; remark: listed apart in the source
PHH spheroids = conditions: In vitro Assay; ref Vorrink 2018; cited from earlier work
human hepatocytes = conditions: In vitro Assay; ref Xu 2008; cited from earlier work
[13] = Modeled in vitro assays (cytotoxicity, mitochondrial dysfunction, BSEP), ref Aleo et al. 2019
[14] = In vitro Assay, ref Proctor 2017
[15] = In vitro Assay, ref Schadt 2015

N[C@@H](Cc1cc(I)c(Oc2ccc(O)c(I)c2)c(I)c1)C(=O)O [liothyronine]
DILI prediction hLiMTs (HCS-MEC) (hLiMTs [1]; Microtissue model structural based (HCI), combined HCS and ATP, MEC < 25 × Cmax.tot cut-off): -VE
hLiMTs <25x Avg Cmax ATP (hLiMTs [1]): -ve
hLiMTs <100x Avg Cmaxu ATP (hLiMTs [1]): -ve
hLiMTs <25x Avg Cmax HCS (hLiMTs [1]): -ve
hLiMTs <100x Avg Cmaxu HCS (hLiMTs [1]): -ve
hLiMTs <25x Avg Cmax All (hLiMTs [1]): -ve
hLiMTs Cmax max All (hLiMTs [1]): -ve
hLiMTs Cmax min All (hLiMTs [1]): -ve
hLiMTs <10 uM All (hLiMTs [1]): -ve
hLiMTs <100x Avg Cmaxu All (hLiMTs [1]): -ve
HepaRG <25x Avg Cmax ATP (HepaRG spheroids): -ve
HepaRG <100x Avg Cmaxu ATP (HepaRG spheroids): -ve
HepaRG <25x Avg Cmax HCS (HepaRG spheroids): -ve
HepaRG <100x Avg Cmaxu HCS (HepaRG spheroids): -ve
HepaRG <25x Avg Cmax All (HepaRG spheroids): -ve
HepaRG Cmax max All (HepaRG spheroids): -ve
HepaRG Cmax min All (HepaRG spheroids): -ve
HepaRG <10 uM All (HepaRG spheroids): +ve (<10 uM)
HepaRG <100x Avg Cmaxu All (HepaRG spheroids): -ve
AC50 (HepaRG spheroids; read-out: ATP endpoint AC50): 30.5 µM
minimal effective concentration (HepaRG spheroids; read-out: ATP endpoint MEC): 11.5 µM
AC50 (HepaRG spheroids; read-out: HCS endpoint AC50): 82.8 µM
minimal effective concentration (HepaRG spheroids; read-out: HCS endpoint MEC): 4.14 µM
DILI prediction HepaRG spheroids (HCS-MEC) (HepaRG spheroids): -VE
Human plasma Cmax,u [2]: 0.05 nM
Cmax [3]: 2 nM
Bayesian Machine Learning [4]: -VE
Partition Hybrid HRM Score ([5]; In vitro Assay, ref Aleo 2019): -VE
Ro2 Hybrid HRM Score ([5]; In vitro Assay, ref Aleo 2019): -VE
Partition Hybrid HRM Score ≥4, Aleo (2019) [5, 13]: -VE
Partition Hybrid HRM Score ≥8, Aleo (2019) [5, 13]: -VE
Rule of Two hybrid HRM Score ≥3, Aleo (2019) [5, 13]: -VE
Rule of Two hybrid HRM Score ≥8, Aleo (2019) [5, 13]: -VE
fu [6]: 0.020

CN(C)C(=N)N=C(N)N [metformin]
in vitro data EC2<=1x Cmax [7]: +VE
in vitro data EC20<=2uM [7]: -VE
Structural based (HCI) (HepG2 cells; In vitro Assay, ref O'Brien 2006): +VE
DILI in vitro assay prediction, O'Brien (2006) (HepG2 cells; Structural based (HCI), HepG2, ref O'Brien et al. 2006): +VE (lowest HCI endpoint IC50 (or in the absence of dose–response < 100 µM) < 30 × total human plasma exposure levels (Cmax.tot))
DILI prediction hLiMTs, HCI alone (hLiMTs [1]; HCS endpoints only, 25 × Cmax.tot cut-off): detection
AC50 (hLiMTs [1]; read-out: ATP endpoint AC50): 768 µM
minimal effective concentration (hLiMTs [1]; read-out: ATP endpoint MEC): 503 µM
minimal effective concentration (hLiMTs [1]; read-out: HCS endpoint MEC): 28.1 µM
DILI prediction hLiMTs, ATP alone (hLiMTs [1]; cellular ATP only, 25 × Cmax.tot cut-off): unpredicted
hLiMTs <25x Avg Cmax ATP (hLiMTs [1]): -ve
hLiMTs <100x Avg Cmaxu ATP (hLiMTs [1]): +ve (<100x Avg Cmaxu)
hLiMTs <25x Avg Cmax HCS (hLiMTs [1]): +ve
hLiMTs <100x Avg Cmaxu HCS (hLiMTs [1]): +ve (<100x Avg Cmaxu)
hLiMTs <25x Avg Cmax All (hLiMTs [1]): +ve
hLiMTs Cmax max All (hLiMTs [1]): +ve
hLiMTs Cmax min All (hLiMTs [1]): +ve
hLiMTs <10 uM All (hLiMTs [1]): -ve
hLiMTs <100x Avg Cmaxu All (hLiMTs [1]): +ve (<100x Avg Cmaxu)
HepaRG <25x Avg Cmax ATP (HepaRG spheroids): -ve
HepaRG <100x Avg Cmaxu ATP (HepaRG spheroids): -ve
HepaRG <25x Avg Cmax HCS (HepaRG spheroids): -ve
HepaRG <100x Avg Cmaxu HCS (HepaRG spheroids): -ve
HepaRG <25x Avg Cmax All (HepaRG spheroids): -ve
HepaRG Cmax max All (HepaRG spheroids): -ve
HepaRG Cmax min All (HepaRG spheroids): -ve
HepaRG <10 uM All (HepaRG spheroids): -ve
HepaRG <100x Avg Cmaxu All (HepaRG spheroids): -ve
DILI prediction HepaRG spheroids (HCS-MEC) (HepaRG spheroids): -VE
Cluster 1-6 +VE Assay [8]: +VE
Human plasma Cmax,u [2]: 7743 nM
Cmax [3]: 7820 nM
PHH/100xCmax, Proctor (2017) (PHH; 2D PHH, ATP, IC50 < 100 × Cmax.tot, ref Proctor et al. 2017): -VE
PHH/100uM, Proctor (2017) (PHH; 2D PHH, ATP, IC50 threshold 100 µM, ref Proctor et al. 2017): -VE
PHH ATP <100uM (PHH; [14]): -VE
DILI in vitro assay prediction, Schadt (2015) ([9]; BSEP & Metabolism based, ref Schadt et al. 2015): -VE
Cellular toxicity (3T3 cells) [9, 15]: -VE
Combined Assay [9, 15]: -VE
GSH adduct HML [9, 15]: -VE
Hepatocyte cellular toxicity [9, 15]: -VE
MitoTox 3T3 [9, 15]: -VE
TDI CYP3A4 [9, 15]: -VE
hBSEP inhibition [9, 15]: -VE
hLiMTs ATP <100uM (hLiMTs [10]; [14]): -VE
hLiMTs/100xCmax, Proctor (2017) (hLiMTs [10]; hLiMTs, ATP, IC50 < 100 × Cmax.tot, ref Proctor et al. 2017): -VE
hLiMTs/100uM, Proctor (2017) (hLiMTs [10]; hLiMTs, ATP, IC50 threshold 100 µM, ref Proctor et al. 2017): -VE
DILI severity category (Chen et al. [2016]) ([11]; LTKB DILIrank category, ref Chen et al. 2016): Less
DILI severity category (Chen 2016) ([11]; human DILI classification, LTKB DILIrank, ref Chen et al. 2016): Less
DILI severity category ([11]; human DILI severity, ref Chen et al.): Less
DILI +VE (5-8), DILI -VE (-4) ([11]; ref Chen 2016): +VE
DILI severity category ([11]; ref Chen 2016): vLess-DILI-Concern
Assigned DILI category ([12]; Chen et al. 2016 or literature alignment, ref Chen et al. 2016): 2
In vivo DILI ([12]; ref Garside 2014): +VE
In vivo DILI ([12]; ref O'Brien 2006): -VE
In vivo DILI ([12]; ref Porceddu 2012): +VE
In vivo DILI ([12]; ref Proctor 2017): +VE
In vivo DILI ([12]; ref Schadt 2015): -VE
fu [6]: 0.990

CC/C(=C(\c1ccccc1)c1ccc(OCCN(C)C)cc1)c1ccccc1 [tamoxifen]
hLiMTs ATP <20 x Cmax (PHH spheroids): +VE (IC20 < 20 × Cmax.tot cut-off)
in vitro data EC2<=1x Cmax [7]: +VE
in vitro data EC20<=2uM [7]: +VE
AC50 (hLiMTs [1]; read-out: ATP endpoint AC50): 6.13 µM
minimal effective concentration (hLiMTs [1]; read-out: ATP endpoint MEC): 3.93 µM
AC50 (hLiMTs [1]; read-out: HCS endpoint AC50): 7.49 µM
minimal effective concentration (hLiMTs [1]; read-out: HCS endpoint MEC): 1.97 µM
hLiMTs <25x Avg Cmax ATP (hLiMTs [1]): +ve
hLiMTs <100x Avg Cmaxu ATP (hLiMTs [1]): -ve
hLiMTs <25x Avg Cmax HCS (hLiMTs [1]): +ve
hLiMTs <100x Avg Cmaxu HCS (hLiMTs [1]): -ve
hLiMTs <25x Avg Cmax All (hLiMTs [1]): +ve
hLiMTs Cmax max All (hLiMTs [1]): +ve
hLiMTs Cmax min All (hLiMTs [1]): +ve
hLiMTs <10 uM All (hLiMTs [1]): +ve (<10 uM)
hLiMTs <100x Avg Cmaxu All (hLiMTs [1]): -ve
HepaRG <25x Avg Cmax ATP (HepaRG spheroids): -ve
HepaRG <100x Avg Cmaxu ATP (HepaRG spheroids): -ve
HepaRG <25x Avg Cmax HCS (HepaRG spheroids): +ve
HepaRG <100x Avg Cmaxu HCS (HepaRG spheroids): -ve
HepaRG <25x Avg Cmax All (HepaRG spheroids): +ve
HepaRG Cmax max All (HepaRG spheroids): +ve
HepaRG Cmax min All (HepaRG spheroids): +ve
HepaRG <10 uM All (HepaRG spheroids): +ve (<10 uM)
HepaRG <100x Avg Cmaxu All (HepaRG spheroids): -ve
AC50 (HepaRG spheroids; read-out: ATP endpoint AC50): 12.7 µM
minimal effective concentration (HepaRG spheroids; read-out: ATP endpoint MEC): 10.8 µM
AC50 (HepaRG spheroids; read-out: HCS endpoint AC50): 16.7 µM
minimal effective concentration (HepaRG spheroids; read-out: HCS endpoint MEC): 3.52 µM
Cluster 1-6 +VE Assay [8]: +VE
Human plasma Cmax,u [2]: 3 nM
Cmax [3]: 320 nM
Structural based (HCI) (human hepatocytes): -VE
fu [6]: 0.010
